The results in this text go back to ChEMBL document CHEMBL5442219.

As a reminder, the inhibition is the drop in the measured response relative to a control, in per cent.

What all share (conditions): Compound concentration 10 µM
The target in experiment [1] is 5-hydroxytryptamine receptor 2B (Homo sapiens) (UniProt P41595).
Experiment [2] addresses D(2) dopamine receptor (Homo sapiens) (UniProt P14416).
The target in experiment [3] is D(1A) dopamine receptor (Homo sapiens) (UniProt P21728).
Experiment [4] addresses Histamine H2 receptor (Homo sapiens) (UniProt P25021).
The target of experiment [5] is 5-hydroxytryptamine receptor 6 (Homo sapiens) (UniProt P50406).
In experiment [6] the target is 5-hydroxytryptamine receptor 7 (Homo sapiens) (UniProt P34969).
Sequence of 5-hydroxytryptamine receptor 7 (Homo sapiens) (P34969 whole entry): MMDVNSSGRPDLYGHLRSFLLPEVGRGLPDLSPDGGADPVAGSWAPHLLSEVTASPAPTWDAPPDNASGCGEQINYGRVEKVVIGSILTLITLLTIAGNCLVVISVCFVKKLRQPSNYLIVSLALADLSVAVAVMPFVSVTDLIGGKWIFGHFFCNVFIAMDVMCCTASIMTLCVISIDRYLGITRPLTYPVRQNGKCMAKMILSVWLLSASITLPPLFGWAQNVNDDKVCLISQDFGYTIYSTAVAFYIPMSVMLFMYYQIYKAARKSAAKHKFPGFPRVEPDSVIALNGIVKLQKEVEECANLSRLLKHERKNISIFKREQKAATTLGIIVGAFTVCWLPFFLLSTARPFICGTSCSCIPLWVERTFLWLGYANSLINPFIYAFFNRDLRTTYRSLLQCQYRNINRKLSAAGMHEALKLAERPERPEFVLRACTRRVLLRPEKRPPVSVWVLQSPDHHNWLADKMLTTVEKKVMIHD
Experiment [7] concerns the target Histamine H4 receptor (Homo sapiens) (UniProt Q9H3N8).
Experiment [8] concerns the target Beta-3 adrenergic receptor (Homo sapiens) (UniProt P13945).
For experiment [9], the target named is Histamine H1 receptor (Homo sapiens) (UniProt P35367).
Sequence of Histamine H1 receptor (Homo sapiens) (P35367 whole entry): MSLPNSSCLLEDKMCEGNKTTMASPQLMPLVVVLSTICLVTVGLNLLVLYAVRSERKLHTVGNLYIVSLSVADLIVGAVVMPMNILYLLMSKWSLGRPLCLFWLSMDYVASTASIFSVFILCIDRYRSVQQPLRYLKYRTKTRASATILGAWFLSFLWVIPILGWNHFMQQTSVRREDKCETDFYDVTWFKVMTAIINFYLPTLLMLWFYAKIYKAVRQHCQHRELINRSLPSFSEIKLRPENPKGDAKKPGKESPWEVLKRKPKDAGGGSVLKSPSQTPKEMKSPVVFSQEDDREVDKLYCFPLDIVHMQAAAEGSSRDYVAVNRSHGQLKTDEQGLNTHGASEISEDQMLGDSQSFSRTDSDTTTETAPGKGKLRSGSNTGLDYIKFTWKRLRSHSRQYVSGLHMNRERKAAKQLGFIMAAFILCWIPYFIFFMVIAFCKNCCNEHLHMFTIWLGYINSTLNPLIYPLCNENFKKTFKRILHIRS
The target of experiment [10] is Sigma non-opioid intracellular receptor 1 (Homo sapiens) (UniProt Q99720).
Sequence of Sigma non-opioid intracellular receptor 1 (Homo sapiens) (Q99720 whole entry): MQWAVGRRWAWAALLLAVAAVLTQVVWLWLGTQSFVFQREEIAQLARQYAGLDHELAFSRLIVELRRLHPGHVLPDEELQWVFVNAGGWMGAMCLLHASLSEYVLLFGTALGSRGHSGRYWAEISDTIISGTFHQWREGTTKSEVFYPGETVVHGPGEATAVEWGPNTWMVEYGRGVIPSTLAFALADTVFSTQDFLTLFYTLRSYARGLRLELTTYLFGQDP
Experiment [11] has as its target Sigma intracellular receptor 2 (Homo sapiens) (UniProt Q5BJF2).
The target of experiment [12] is 5-hydroxytryptamine receptor 1E (Homo sapiens) (UniProt P28566).
Sequence of 5-hydroxytryptamine receptor 1E (Homo sapiens) (P28566 whole entry): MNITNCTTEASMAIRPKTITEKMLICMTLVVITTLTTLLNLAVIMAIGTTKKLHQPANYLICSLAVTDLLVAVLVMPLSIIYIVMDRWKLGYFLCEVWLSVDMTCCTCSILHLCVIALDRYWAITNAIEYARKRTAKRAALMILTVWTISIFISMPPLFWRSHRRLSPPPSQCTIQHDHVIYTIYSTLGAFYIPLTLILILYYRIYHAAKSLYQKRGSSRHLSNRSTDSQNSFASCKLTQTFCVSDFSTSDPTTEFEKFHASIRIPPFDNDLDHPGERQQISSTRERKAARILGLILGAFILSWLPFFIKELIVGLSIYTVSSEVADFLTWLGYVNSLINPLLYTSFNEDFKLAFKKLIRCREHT
The target in experiment [13] is T1, 5-hydroxytryptamine receptor 3A (Homo sapiens) (UniProt P46098).
T1 sequence (whole entry): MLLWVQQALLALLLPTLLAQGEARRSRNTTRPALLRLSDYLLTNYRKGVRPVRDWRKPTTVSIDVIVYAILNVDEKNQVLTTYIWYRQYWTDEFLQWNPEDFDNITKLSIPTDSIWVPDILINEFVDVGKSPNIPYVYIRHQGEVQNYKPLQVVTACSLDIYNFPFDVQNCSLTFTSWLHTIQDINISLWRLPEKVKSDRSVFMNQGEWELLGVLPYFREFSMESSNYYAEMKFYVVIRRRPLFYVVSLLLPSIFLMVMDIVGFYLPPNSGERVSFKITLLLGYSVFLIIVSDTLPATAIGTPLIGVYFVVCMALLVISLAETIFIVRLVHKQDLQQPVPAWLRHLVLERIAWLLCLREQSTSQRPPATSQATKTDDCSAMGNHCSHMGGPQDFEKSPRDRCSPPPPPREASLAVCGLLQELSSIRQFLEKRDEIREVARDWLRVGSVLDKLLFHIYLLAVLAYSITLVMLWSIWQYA

In experiment [14] the target is T2, D(4) dopamine receptor (Homo sapiens) (UniProt P21917).
T2 sequence (whole entry): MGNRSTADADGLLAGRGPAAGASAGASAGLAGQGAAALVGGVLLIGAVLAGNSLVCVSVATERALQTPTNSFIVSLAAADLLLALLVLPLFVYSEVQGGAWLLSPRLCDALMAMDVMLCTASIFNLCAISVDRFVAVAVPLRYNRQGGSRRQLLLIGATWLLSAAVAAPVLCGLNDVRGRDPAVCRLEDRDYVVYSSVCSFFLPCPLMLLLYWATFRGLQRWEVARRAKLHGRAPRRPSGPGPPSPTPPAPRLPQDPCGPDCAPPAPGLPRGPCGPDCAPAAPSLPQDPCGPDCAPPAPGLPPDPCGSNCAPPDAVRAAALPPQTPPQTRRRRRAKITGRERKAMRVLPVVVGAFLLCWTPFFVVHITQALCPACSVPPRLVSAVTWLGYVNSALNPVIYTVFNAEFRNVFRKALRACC

Experiment [15] has as its target Translocator protein (Homo sapiens) (UniProt P30536).
Experiment [16] concerns the target T3, Alpha-2B adrenergic receptor (Homo sapiens) (UniProt P18089).
T3 sequence (whole entry): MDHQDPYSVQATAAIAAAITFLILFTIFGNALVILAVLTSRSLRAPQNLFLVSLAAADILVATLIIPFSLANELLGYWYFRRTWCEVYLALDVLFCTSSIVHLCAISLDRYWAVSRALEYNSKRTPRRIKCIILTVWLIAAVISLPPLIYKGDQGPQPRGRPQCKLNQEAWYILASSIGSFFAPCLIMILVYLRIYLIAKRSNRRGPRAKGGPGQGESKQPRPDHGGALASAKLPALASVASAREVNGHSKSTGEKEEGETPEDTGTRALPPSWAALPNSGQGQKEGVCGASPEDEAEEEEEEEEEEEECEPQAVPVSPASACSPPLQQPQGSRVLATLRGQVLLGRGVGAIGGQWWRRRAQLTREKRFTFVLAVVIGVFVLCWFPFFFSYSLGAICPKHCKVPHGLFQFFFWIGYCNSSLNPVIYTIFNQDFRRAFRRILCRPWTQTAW

The target of experiment [17] is T4, Muscarinic acetylcholine receptor M2 (Homo sapiens) (UniProt P08172).
T4 sequence (whole entry): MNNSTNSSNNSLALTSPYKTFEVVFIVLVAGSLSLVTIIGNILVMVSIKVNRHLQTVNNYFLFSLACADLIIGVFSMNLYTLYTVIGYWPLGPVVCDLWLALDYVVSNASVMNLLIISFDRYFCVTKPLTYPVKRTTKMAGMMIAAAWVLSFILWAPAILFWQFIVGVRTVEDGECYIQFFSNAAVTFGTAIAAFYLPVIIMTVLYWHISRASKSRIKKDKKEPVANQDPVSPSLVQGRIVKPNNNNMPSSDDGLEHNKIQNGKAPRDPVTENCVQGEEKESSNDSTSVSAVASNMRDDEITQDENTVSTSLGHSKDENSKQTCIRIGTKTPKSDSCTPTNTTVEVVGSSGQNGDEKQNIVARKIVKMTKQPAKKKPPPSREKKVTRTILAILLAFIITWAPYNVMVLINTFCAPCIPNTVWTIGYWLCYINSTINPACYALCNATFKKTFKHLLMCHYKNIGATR

For experiment [18], the target named is Sodium-dependent noradrenaline transporter (Homo sapiens) (UniProt P23975).
Experiment [19] addresses D(3) dopamine receptor (Homo sapiens) (UniProt P35462).
For experiment [20], the target named is 5-hydroxytryptamine receptor 1D (Homo sapiens) (UniProt P28221).
Sequence of 5-hydroxytryptamine receptor 1D (Homo sapiens) (P28221 whole entry): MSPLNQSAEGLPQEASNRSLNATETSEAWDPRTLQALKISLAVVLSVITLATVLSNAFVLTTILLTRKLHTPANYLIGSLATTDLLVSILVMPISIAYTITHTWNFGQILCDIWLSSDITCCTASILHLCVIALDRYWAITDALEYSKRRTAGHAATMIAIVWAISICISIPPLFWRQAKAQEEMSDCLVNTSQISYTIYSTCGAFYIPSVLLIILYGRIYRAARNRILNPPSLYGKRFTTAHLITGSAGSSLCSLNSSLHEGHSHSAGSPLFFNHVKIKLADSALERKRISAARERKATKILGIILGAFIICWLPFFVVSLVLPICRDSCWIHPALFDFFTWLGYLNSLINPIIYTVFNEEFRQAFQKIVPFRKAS
Experiment [21] concerns the target Muscarinic acetylcholine receptor M3 (Homo sapiens) (UniProt P20309).
Experiment [22] addresses 5-hydroxytryptamine receptor 1B (Homo sapiens) (UniProt P28222).

Sequence of Muscarinic acetylcholine receptor M3 (Homo sapiens) (P20309 whole entry, looked up): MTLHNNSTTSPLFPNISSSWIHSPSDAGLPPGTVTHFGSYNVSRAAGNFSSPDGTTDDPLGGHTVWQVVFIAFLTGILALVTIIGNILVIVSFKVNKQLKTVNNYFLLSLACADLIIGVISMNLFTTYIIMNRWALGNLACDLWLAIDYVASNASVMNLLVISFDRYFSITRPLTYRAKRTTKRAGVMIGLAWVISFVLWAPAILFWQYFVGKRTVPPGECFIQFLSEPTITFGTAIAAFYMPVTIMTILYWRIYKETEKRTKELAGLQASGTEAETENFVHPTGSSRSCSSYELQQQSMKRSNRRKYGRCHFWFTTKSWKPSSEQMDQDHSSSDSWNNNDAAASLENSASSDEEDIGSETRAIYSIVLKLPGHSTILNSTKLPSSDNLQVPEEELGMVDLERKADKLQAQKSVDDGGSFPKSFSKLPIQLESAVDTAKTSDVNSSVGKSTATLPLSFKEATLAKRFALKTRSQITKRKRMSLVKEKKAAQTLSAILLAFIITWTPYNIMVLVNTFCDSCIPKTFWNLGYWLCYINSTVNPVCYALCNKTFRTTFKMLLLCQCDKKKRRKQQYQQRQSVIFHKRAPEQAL
Sequence of Translocator protein (Homo sapiens) (P30536 whole entry): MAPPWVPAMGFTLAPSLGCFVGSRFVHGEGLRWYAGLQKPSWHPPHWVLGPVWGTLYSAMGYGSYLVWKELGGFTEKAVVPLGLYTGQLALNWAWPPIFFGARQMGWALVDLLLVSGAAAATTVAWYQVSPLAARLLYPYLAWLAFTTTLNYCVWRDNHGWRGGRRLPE
Sequence of Histamine H4 receptor (Homo sapiens) (Q9H3N8 whole entry): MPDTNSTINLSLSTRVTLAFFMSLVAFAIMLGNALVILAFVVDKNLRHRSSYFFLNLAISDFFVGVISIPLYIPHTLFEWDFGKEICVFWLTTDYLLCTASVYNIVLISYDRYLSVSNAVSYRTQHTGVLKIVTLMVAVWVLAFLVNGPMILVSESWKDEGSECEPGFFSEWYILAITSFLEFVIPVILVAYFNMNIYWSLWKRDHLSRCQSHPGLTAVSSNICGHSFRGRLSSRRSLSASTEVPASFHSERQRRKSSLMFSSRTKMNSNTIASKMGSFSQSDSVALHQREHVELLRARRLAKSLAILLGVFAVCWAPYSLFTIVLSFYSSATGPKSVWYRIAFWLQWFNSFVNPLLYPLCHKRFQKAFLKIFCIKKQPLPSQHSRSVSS
Sequence of Histamine H2 receptor (Homo sapiens) (P25021 whole entry): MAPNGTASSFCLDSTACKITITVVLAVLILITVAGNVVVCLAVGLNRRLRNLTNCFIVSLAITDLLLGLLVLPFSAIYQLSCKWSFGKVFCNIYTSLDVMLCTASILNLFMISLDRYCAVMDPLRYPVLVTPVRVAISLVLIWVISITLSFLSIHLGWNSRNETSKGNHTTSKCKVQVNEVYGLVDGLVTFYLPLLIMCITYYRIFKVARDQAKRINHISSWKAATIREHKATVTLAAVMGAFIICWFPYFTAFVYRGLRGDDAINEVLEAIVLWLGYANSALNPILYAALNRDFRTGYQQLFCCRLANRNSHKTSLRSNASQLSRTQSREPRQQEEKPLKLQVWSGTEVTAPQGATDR
Sequence of D(3) dopamine receptor (Homo sapiens) (P35462 whole entry): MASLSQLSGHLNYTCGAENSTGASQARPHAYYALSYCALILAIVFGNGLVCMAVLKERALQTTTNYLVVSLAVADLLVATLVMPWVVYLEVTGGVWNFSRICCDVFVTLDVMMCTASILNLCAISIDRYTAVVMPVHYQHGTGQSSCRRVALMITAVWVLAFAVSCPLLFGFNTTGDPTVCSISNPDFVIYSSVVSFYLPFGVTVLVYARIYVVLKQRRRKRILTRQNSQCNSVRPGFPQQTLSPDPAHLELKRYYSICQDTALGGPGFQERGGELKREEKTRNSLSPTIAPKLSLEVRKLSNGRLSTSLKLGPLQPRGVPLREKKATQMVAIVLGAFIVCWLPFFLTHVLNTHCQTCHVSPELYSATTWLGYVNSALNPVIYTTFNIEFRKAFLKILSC
Sequence of 5-hydroxytryptamine receptor 2B (Homo sapiens) (P41595 whole entry): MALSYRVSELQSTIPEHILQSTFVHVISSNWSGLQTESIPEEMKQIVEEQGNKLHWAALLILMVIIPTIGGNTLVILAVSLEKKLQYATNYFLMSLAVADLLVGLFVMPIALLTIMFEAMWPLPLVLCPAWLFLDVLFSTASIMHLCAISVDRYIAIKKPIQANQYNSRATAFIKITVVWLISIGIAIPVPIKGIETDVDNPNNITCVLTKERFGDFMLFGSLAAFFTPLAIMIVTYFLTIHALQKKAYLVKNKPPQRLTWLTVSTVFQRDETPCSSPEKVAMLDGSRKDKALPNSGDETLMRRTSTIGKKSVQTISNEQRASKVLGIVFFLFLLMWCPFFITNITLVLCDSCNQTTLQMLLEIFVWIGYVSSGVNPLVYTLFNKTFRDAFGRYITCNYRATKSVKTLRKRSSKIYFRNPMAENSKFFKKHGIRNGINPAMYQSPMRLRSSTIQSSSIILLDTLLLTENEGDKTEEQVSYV
Sequence of Sigma intracellular receptor 2 (Homo sapiens) (Q5BJF2 whole entry): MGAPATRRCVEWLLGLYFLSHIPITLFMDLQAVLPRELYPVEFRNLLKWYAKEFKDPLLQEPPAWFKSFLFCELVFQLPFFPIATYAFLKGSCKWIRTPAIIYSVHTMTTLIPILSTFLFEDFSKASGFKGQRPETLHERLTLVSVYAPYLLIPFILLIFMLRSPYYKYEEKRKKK
Sequence of Beta-3 adrenergic receptor (Homo sapiens) (P13945 whole entry, looked up): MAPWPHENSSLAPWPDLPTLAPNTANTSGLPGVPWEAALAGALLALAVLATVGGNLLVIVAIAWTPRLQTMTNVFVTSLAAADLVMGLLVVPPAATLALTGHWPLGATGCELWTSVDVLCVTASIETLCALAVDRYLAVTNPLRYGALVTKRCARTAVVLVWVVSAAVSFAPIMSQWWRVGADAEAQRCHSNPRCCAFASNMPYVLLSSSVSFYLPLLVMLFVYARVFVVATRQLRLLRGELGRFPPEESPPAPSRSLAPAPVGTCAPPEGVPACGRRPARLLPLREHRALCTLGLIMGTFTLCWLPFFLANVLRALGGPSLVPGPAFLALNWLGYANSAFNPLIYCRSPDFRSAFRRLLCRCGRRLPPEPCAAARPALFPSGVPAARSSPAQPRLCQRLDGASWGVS

For the molecule `COC1CCN(c2cccc(-c3cc(NC(C)=O)nc(-n4nc(C)cc4C)n3)n2)CC1`, the inhibition in experiment [1] is 30.3%; in experiment [2], 12.8%; in experiment [3] it was -3.87%; in experiment [4], 26%; in experiment [5], 40.8%; in experiment [6], 0.28%. Also, the inhibition in experiment [7] is 5.32%; in experiment [8] it was 22.6%; in [9], 14.4%; in [10], 80.2%; in experiment [11] it was 36.3%; in experiment [12], 15.2%. In addition, the inhibition in experiment [13] was 21.1%; in experiment [14] it was -2.89%; in [15], 70.3%; in experiment [16], -0.88%.

Take `COc1ccnc(N2CCC3(CCCN(Cc4c[nH]c5ccccc45)C3=O)CC2)n1`: the inhibition is -2.35% in [17]; 23.6% in [1]; 7% in experiment [2]; -4.13% in [3]; 16.6% in [18]; -7.83% in [4]. Also, the inhibition in experiment [5] is 19.4%; in [6] it was 8.03%; in experiment [7], -2.57%; in [8], -5.97%; in experiment [9], 23.1%; in [10], 16%. The inhibition in experiment [19] was 28.5%; in [11], 34.7%; in experiment [12] it was -3.29%; in experiment [20], 13.2%; in experiment [15], 75.8%; in experiment [16], -7.28%.

Turning to `Cc1csc(NC(=O)c2cc(F)cc(Oc3cncnc3)c2)n1`, the inhibition is -7.43% in experiment [17]; 26.7% in experiment [1]; 21% in experiment [2]; -2.7% in experiment [21]; -5.62% in experiment [3]; 10.9% in experiment [18]. For the same molecule, the inhibition in [4] is 28.4%; in experiment [5], 7.85%; in experiment [6], 15.3%; in experiment [7] it was 0.79%; in experiment [9], -6.12%; in experiment [10], 37.2%. Further, the inhibition in experiment [19] is 72%; in experiment [11], 41.8%; in experiment [12], -3.74%; in experiment [20], 5.84%; in experiment [22], -4.65%; in [14], 23.6%. In addition, the inhibition in [15] is 37.4%; in experiment [16] it was 6.73%.

For `Cc1nnn(-c2ccc(-c3ccc(C4(C(=O)O)CC4)cc3)cc2)c1NC(=O)O[C@H](C)c1ccccc1`, the inhibition in experiment [1] was -0.33%; in experiment [2] it was 25.4%; in experiment [21], -2.63%; in experiment [3], -4.64%; in experiment [18], 2.8%; in experiment [4] it was 4.74%. The inhibition in experiment [5] was 37.4%; in experiment [7], -4.07%; in experiment [8] it was 24.9%; in experiment [9] it was 52.8%; in [10], 20.9%; in experiment [19] it was 34.8%. The inhibition in experiment [11] is -0.49%; in [12] it was 1.32%; in experiment [20], 16.8%; in [22], -3.56%; in experiment [15] it was 3.3%; in experiment [16] it was 4.78%.

For `Cc1c(C2=CCN(C(=O)N(C)C(C)C)CC2)nnn1-c1cccnc1F`, the inhibition was 6.62% in experiment [1]; 11.9% in experiment [2]; 1.95% in [21]; 29.8% in experiment [4]; 1.27% in [5]; -7.92% in [6]. The inhibition in experiment [7] was 9.6%; in experiment [8] it was 14.8%; in [9], 60.9%; in experiment [10], 48.4%; in experiment [19] it was -1.95%; in experiment [11], 64.4%. Also, the inhibition is 20.2% in experiment [12]; 8.19% in experiment [13]; 26.9% in experiment [14]; -1.56% in [15]; 21.3% in experiment [16].
